Consider 11 compounds from article PMC8875489, “Pharmaceutical and Safety Profile Evaluation of Novel Selenocompounds with Noteworthy Anticancer Activity” (Pharmaceutics, 2022).

Series [1] can be described thus: Experimental aqueous solubility (UV spectrophotometry of saturated solutions). It is filed as physicochemical. The note with it: for solubility at 24 h: water (saturated solution). As for the experimental part: Experimental aqueous solubility was determined following a previously described procedure. Briefly, calibration curves were obtained by means of UV spectrometry for each compound, and their respective linear equations were obtained. Afterwards, saturated solutions of each compound were obtained, and they were diluted until the concentration fell within the calibration range, thus enabling the correct concentration interpolation. […] A detailed description of this process can be found in Supplementary Materials.
The aqueous solubility of the tested organic Se compounds was experimentally determined following a previously described procedure. The chosen assay used UV spectrophotometry to estimate the concentration of the saturated solution with known dilutions of the tested compound at room temperature (20° C) after 24 h. The concentrations of the solutions were used to obtain the interpolation of the measured UV absorbance of the saturated solution dilution from the calibration curve drawn using solutions previously prepared in methanol/water mixtures. […]
1.2. Determination of the aqueous solubility
1.2.1. Preparation of the saturated solutions of tested compounds
The saturated solutions (2 mL) of the tested Se-compounds in water were prepared at H2O boiling point in small glass vials. Later, vials were covered to avoid evaporation and all solutions were left 1 day at 20° C, after when every solution was filtered. Finally, the concentration of the Se-compounds was determined through UV spectrophotometric measurements. To estimate correctly the concentration, calibration curves with known concentrations were prepared, and the saturated solutions were diluted till reaching a point within the range of the respective calibration curve.
1.2.2. Preparation of the calibration curve stock solutions for UV spectrometry The stock solutions of 10 selenoesters (EDA-26, EDA-71, EDA-73, EDA-74, EDA-93, […]
were prepared in methanol (99% purity) at a 1 g/L concentration. Additionally, calibration solutions in the range from 0.0005 to 0.02 [g/L] were prepared for each Se-compound and their UV absorbance was determined to draw the corresponding calibration curve.
1.2.3. Sample preparation of saturated filtrates for UV spectrometry
The 100-fold diluted solutions of the saturated filtrates of the Se-compounds were prepared in the anhydrous methanol (99% purity), by addition of 70 μL of the correspond-ing methanol stock solution over anhydrous methanol till filling a 7 mL final volume. Af-terwards, the absorption of abovementioned solutions was determined. Finally, the solu-tions were diluted with 99% methanol from 1 to 160 times, in function of the compound.
The aim of this procedure was to determine the concentration of the Se-compounds […]
through the controlled dilution of the solution with unknown concentration till its UV absorbance fell within the range of the calibration solutions.
1.2.4. Solubility estimation
For each compound, the calibration curve was calculated through the UV absorbance measurements and the linear equation of the linear part of the curve was calculated. The absorbance of the dilution was then interpolated in this range, finding its concentration.
To determine the solubility, this concentration was multiplied by the dilution factor, which was specific for each derivative. This action enabled the estimation of the in vitro solubility of the tested derivatives in saturated solutions. All the solubility values were the average value obtained from the 3 independent measurements.
(§1) 1.3. PAMPA test: membrane permeability evaluation.
(§2) The passive transport and the membrane absorption of 5 selected selenocompounds (EDA-58, EDA-71, EDA-119, EDA-122, EDA-A6) were evaluated in the in vitro Parallel Artificial Membrane Permeability Assay (PAMPA). The protocol of the permeability assay was similar to the ones previously described.
1.3.1. Stock solutions and sample preparation for PAMPA test […]

A short description of series [2]: PAMPA membrane permeability test (capillary electrophoresis). The note with it: for Papp at 5 h, 50 µM: 50 μM in PBS pH 7.4, 5 h, room temperature, read-out: In Vitro Permeability; for % Perm. (percentage that crossed from the donor well to the acceptor well): 5 h. It is filed as in vitro ADME. The method, then:
The passive transport and membrane absorption of 5 selected selenocompounds (EDA-58, EDA-71, EDA-119, EDA-122, and EDA-A6) were evaluated with the in vitro parallel artificial membrane permeability assay (PAMPA). This PAMPA assay could provide better predictability and membrane permeability correlations compared to the data obtained for human absorption in the Caco-2 cell line. The Precoated PAMPA Plate System Gentest™ (Corning, Bradford, MA, USA) was used to perform the permeability assay for the 5 selected Se compounds. The protocol of the permeability assay was similar to the previously described ones and is detailed in the Supplementary Materials.
Five selenocompounds (EDA-58, EDA-71, EDA-119, EDA-122, and EDA-A6) were evaluated with the PAMPA in vitro assay using the CE technique.
[formula] Scheme 1 Calculation of the in vitro permeability (cm/s). A (filter area) cm^2 = 0.3; VD (donor well volume) mL = 0.3; VA (acceptor well volume) mL = 0.2; t (incubation time) seconds = 18,000; CA(t) (compound concentration in acceptor well at time t); CD(t) (compound concentration in donor well at time t). […]
as §1, §2
1.3.1. Stock solutions and sample preparation for PAMPA test
Working solutions of the tested compounds at the concentration of the 50 μM in the phosphate saline buffer (PBS, pH 7.4) were prepared from the stocks in the pure dimethyl sulfoxide (DMSO) and stored at -20° C. Moreover, to draw the precise calibration curves for each tested (EDA-58, EDA-71, EDA-119, EDA-122, EDA-A6) and reference com- […]
The Precoated PAMPA Plate System Gentest™ (Corning, Bradford, MA, USA) was used to perform permeability assay for the 5 selected Se-compounds. The essential part of […]
solvents. PAMPA Plate System was brought to room temperature 30 min before use.
The 96-well filter plate precoated with lipids was used as a permeation acceptor, whereas the 96-well receiver plate acted as the permeation donor plate. Therefore, the compound solutions were added to the wells (300 μL/well) of the receiver plate and PBS was added to wells (200 μL/well) of the precoated filter plate.
Then, the filter plate was coupled with the receiver plate and both were incubated at room temperature for five hours without agitation. […] Fi-nally, the permeability coefficients (Pe, [cm/s]) of the tested compounds were estimated using the formula provided by the PAMPA Plate System manufacturer.
1.3.3. Capillary electrophoresis (CE) analytical method […]
were calculated in both the donor and acceptor compartments using the capillary electro-

The mark [3] stands for this setting: 20 °C, water, thermodynamic from solid, logSm calculated based on solubility Sm (mol/L), read-out: Experimental Aqueous Solubility logSm (converted).
The mark [4] stands for this setting: thermodynamic from solid, water, room temperature (20° C), after 24 h, average of 3, read-out: Experimental Aqueous Solubility.

Read-outs that look alike come from different tables or passages of the source.

For orientation: solubility means how much of the substance goes into solution per volume. For the compound `COc1cc(OC)cc(C(=O)[Se]CC(=O)C(C)(C)C)c1` [EDA-74, Se-(3,3-dimethyl-2-oxobutyl) 3,5-dimethoxybenzoselenoate], the solubility at 24 h in series [1] (setting [3]) is 55 µM; in series [1] (setting [4]), 0.019 mg/mL.
`O=C1[Se]C(=O)c2ccccc21` [EDA-A6, benzo[c]selenophene-1,3-dione]: in series [1] (setting [3]), the solubility at 24 h was 3630 µM. Moreover, the solubility at 24 h in series [1] (setting [4]) stood at 0.758 mg/mL. For the same compound, in series [2], the “permeability compared with caffeine” value is given as “higher permeability values than caffeine”; the Papp at 5 h, 50 µM is 34.4 nm/s; the “% Perm. (percentage that crossed from the donor well to the acceptor well)” value is reported as 6.08%.
Consider `O=C(C[Se]C(=O)c1ccccc1)Oc1ccccc1` [EDA-93, phenyl 2-(benzoylselanyl)acetate], for which the solubility at 24 h in series [1] (setting [3]) is 69.2 µM; in series [1] (setting [4]) it was 0.022 mg/mL.
As for `CC(=O)C[Se]C(=O)c1ccc(Cl)cc1` [EDA-71, Se-(2-oxopropyl) 4-chlorobenzoselenoate], in series [1] (setting [3]), the solubility at 24 h is 479 µM. The solubility at 24 h in series [1] (setting [4]) turned out to be 0.132 mg/mL. In addition, in series [2], the “permeability compared with caffeine” value is “higher permeability values than caffeine”; the Papp at 5 h, 50 µM worked out at 38.6 nm/s; the “% Perm. (percentage that crossed from the donor well to the acceptor well)” value was found to be 6.81%.
Consider `C[Se]C(=O)c1cccc(C(=O)[Se]C)c1` [EDA-120, Se,Se-dimethyl benzene-1,3-bis(carboselenoate)], for which the solubility at 24 h in series [1] (setting [3]) was 81.3 µM; in series [1] (setting [4]), 0.026 mg/mL.
For `C[Se]C(=O)c1cccc(C(=O)[Se]C)n1` [EDA-119, Se,Se-dimethyl pyridine-2,6-bis(carboselenoate)], in series [1] (setting [3]), the solubility at 24 h is 427 µM. In series [1] (setting [4]), the solubility at 24 h was 0.137 mg/mL. Moreover, in series [2], the “permeability compared with caffeine” value was “lower permeability values than caffeine”; the Papp at 5 h, 50 µM worked out at 32.7 nm/s; the “% Perm. (percentage that crossed from the donor well to the acceptor well)” value is 5.79%.
As to `COC(=O)C[Se]C(=O)c1cc(OC)c(OC)c(OC)c1` [EDA-26, methyl 2-((3,4,5-trimethoxybenzoyl)selanyl)acetate], the solubility at 24 h in series [1] (setting [3]) is 1100 µM; in series [1] (setting [4]) it was 0.38 mg/mL.
`COC(=O)C[Se]C(=O)c1cc(OC)cc(OC)c1` [EDA-58, methyl 2-((3,5-dimethoxybenzoyl)selanyl)acetate]: in series [2], the “permeability compared with caffeine” value is recorded as “lower permeability values than caffeine”; the Papp at 5 h, 50 µM came to 22.2 nm/s; the “% Perm. (percentage that crossed from the donor well to the acceptor well)” value came out at 3.95%.
Regarding `CC(C)(C)C(=O)C[Se]C(=O)c1ccc(Cl)cc1` [EDA-73, Se-(3,3-dimethyl-2-oxobutyl) 4-chlorobenzoselenoate], the “fold less soluble than the most soluble Se compound (EDA-117)” value in series [1] (experimental solubility) was “more than 1000 fold”. Moreover, the solubility at 24 h was approximately 3.16 µM in series [1] (setting [3]); approximately 0.001 mg/mL in series [1] (setting [4]); 3.16 µM in series [1] (logSm calculated based on solubility Sm (mol/L), read-out: Experimental Aqueous Solubility logSm (converted)).
For `C[Se]C(=O)c1ccc(C(=O)[Se]C)s1` [EDA-122, Se,Se-dimethyl thiophene-2,5-bis(carboselenoate)], the solubility at 24 h in series [1] (setting [3]) is 95.5 µM. For the same compound, the solubility at 24 h in series [1] (setting [4]) stood at 0.031 mg/mL. Also, in series [2], the “permeability compared with caffeine” value is on record as “higher permeability values than caffeine”; the Papp at 5 h, 50 µM is 46.7 nm/s; the “% Perm. (percentage that crossed from the donor well to the acceptor well)” value stood at 8.20%.
As to `C[Se]C(=O)c1ccc(C(=O)[Se]C)cc1` [EDA-109, Se,Se-dimethyl benzene-1,4-bis(carboselenoate)], the results for the solubility at 24 h in series [1] (setting [3]) and in series [1] (setting [4]) were 87.1 µM and 0.028 mg/mL, respectively.
